Assay results as given in US8236818B2, “Substituted imidazopyridine derivatives as melanocortin-4 receptor antagonists” (Santhera Pharmaceuticals (Schweiz) AG, priority 2007, dated 2012).

Experiments:
[1] = biological target: T1, melanocortin-4 receptor (Homo sapiens, UniProt P32245); assay: Membrane binding assay (fluorescence polarization, competition with fluorescence labeled NDP-alpha-MSH); conditions: read-out: hMC-4R binding assay IC50/μM
T1 construct: expressed in transfected cells; host or cells: HEK293 cells (membrane preparations)

[2] = biological target: T1, melanocortin-4 receptor; assay: Functional assay (cAMP fluorescence polarization, membrane based, agonistic activity); type: biochemical; conditions: for Emax: 2 h, read-out: % activation functional assay; for EC50: agonistic activity, cAMP, HEK293 membrane preparations, read-out: hMC-4R functional assay EC50/μM

T1 sequence (P32245 whole entry): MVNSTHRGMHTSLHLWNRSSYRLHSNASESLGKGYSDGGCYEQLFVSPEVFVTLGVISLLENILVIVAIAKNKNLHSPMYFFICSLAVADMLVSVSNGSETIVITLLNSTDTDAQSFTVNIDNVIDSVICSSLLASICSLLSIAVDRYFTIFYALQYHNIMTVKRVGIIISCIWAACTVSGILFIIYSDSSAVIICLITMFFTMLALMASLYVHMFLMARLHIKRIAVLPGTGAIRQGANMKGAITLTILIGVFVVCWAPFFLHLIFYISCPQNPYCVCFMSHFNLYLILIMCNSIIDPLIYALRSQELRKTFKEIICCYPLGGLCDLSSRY

| IC50 [1] [µM] | Emax [2] [%] | EC50 [2] [µM] | Structure (SMILES) |
| --- | --- | --- | --- |
| 0.1 to 1 | 0 |  | COc1cccc(-c2nc3ccc(C(=O)N(CCC(C)C)CCC(C)C)cn3c2CCCN2CC[C@@H](F)C2)c1 [Example 32] |
| < 0.1 | -22 | < 0.1 | COc1cccc(-c2nc3ccc(C(=O)N(CCC(C)C)CCC(C)C)cn3c2CCCN2CC[C@H](O)C2)c1 [Example 33] |
| < 0.1 | -18 | < 0.1 | COc1cccc(-c2nc3ccc(C(=O)N(CCC(C)C)CCC(C)C)cn3c2CCCN2CC[C@@H](O)C2)c1 [Example 34] |
| < 0.1 | 0 |  | CC(C)CCN(CCC(C)C)C(=O)c1ccc2nc(-c3ccc(S(C)(=O)=O)cc3)c(CCCN3CCCC3)n2c1 [Example 35] |
| > 1 | 0 |  | COc1cccc(-c2nc3ccc(C(=O)N(CCC(C)C)CCC(C)C)cn3c2CCCN2CCNCC2)c1 [Example 36] |
| < 0.1 | 0 |  | COc1cccc(-c2nc3ccc(C(=O)N(CCC(C)C)CCC(C)C)cn3c2CCCN2CC(O)C2)c1 [Example 37] |
| > 1 | 0 |  | C#CCN(C)CCCc1c(-c2cccc(OC)c2)nc2ccc(C(=O)N(CCC(C)C)CCC(C)C)cn12 [Example 38] |
| < 0.1 | 0 |  | CC(C)CCN(CCC(C)C)C(=O)c1ccc2nc(-c3ccc4c(c3)OCO4)c(CCCN3CCCC3)n2c1 [Example 39] |
| 0.1 to 1 | 0 |  | Cc1ccnc(-c2nc3ccc(C(=O)N(CCC(C)C)CCC(C)C)cn3c2CCCN2CCCC2)c1 [Example 40] |
| < 0.1 | 0 |  | Cc1cccc(-c2nc3ccc(C(=O)N(CCC(C)C)CCC(C)C)cn3c2CCCN2CCCC2)n1 [Example 41] |
| < 0.1 | 0 |  | CC(C)CCN(CCC(C)C)C(=O)c1ccc2nc(-c3ccc(Cl)cn3)c(CCCN3CCCC3)n2c1 [Example 42] |
| < 0.1 | 0 |  | CC(C)CCN(CCC(C)C)C(=O)c1ccc2nc(-c3ccc4c(c3)NC(=O)CO4)c(CCCN3CCCC3)n2c1 [Example 43] |
| < 0.1 | 0 |  | CC(C)CCN(CCC(C)C)C(=O)c1ccc2nc(-c3cc(O)ccn3)c(CCCN3CCCC3)n2c1 [Example 44] |
| < 0.1 | 0 |  | CC(C)CCN(CCC(C)C)C(=O)c1ccc2nc(-c3ccc4c(c3)CCC(=O)N4)c(CCCN3CCCC3)n2c1 [Example 45] |
| 0.1 to 1 | 0 |  | CC(C)CCN(CCC(C)C)C(=O)c1ccc2nc(-c3cc(O)ccn3)c(CCCN(C)C)n2c1 [Example 46] |
| < 0.1 | 0 |  | CC(C)CCN(CCC(C)C)C(=O)c1ccc2nc(-c3ncco3)c(CCCN3CCCC3)n2c1 [Example 47] |
| < 0.1 | 0 |  | Cc1nc(C)c(-c2nc3ccc(C(=O)N(CCC(C)C)CCC(C)C)cn3c2CCCN2CCCC2)o1 [Example 48] |
| < 0.1 | 0 |  | CC(C)CCN(CCC(C)C)C(=O)c1ccc2nc(-c3nccs3)c(CCCN3CCCC3)n2c1 [Example 49] |
| 0.1 to 1 | -1 |  | CC(C)CCN(CCC(C)C)C(=O)c1ccc2nc(-c3ccc(C(=O)O)cc3)c(CCCN3CCCC3)n2c1 [Example 50] |
| < 0.1 | 0 |  | CC(C)CCN(CCC(C)C)C(=O)c1ccc2nc(-c3ccc(N(C)C)nc3)c(CCCN(C)C)n2c1 [Example 51] |
| 0.1 to 1 | 0 |  | CC(C)CCN(CCC(C)C)C(=O)c1ccc2nc(-c3ncco3)c(CCCN(C)C)n2c1 [Example 52] |
| 0.1 to 1 | 0 |  | COc1cccc(-c2nc3ccc(C(=O)N(CCC(C)C)CCC(C)C)cn3c2CC(C)CN2CCCC2)c1 (centres unmarked) [Example 54] |
| 0.1 to 1 | 0 |  | CC(C)CCN(CCC(C)C)C(=O)c1ccc2nc(-c3ccccn3)c(CCCN3CCCC3)n2c1 [Example 55] |
| < 0.1 | 0 |  | CC(C)CCN(CCC(C)C)C(=O)c1ccc2nc(-c3ccncc3)c(CCCN3CCCC3)n2c1 [Example 56] |
| < 0.1 | 0 |  | Cc1ccc(-c2nc3ccc(C(=O)N(CCC(C)C)CCC(C)C)cn3c2CCCN2CCCC2)nc1 [Example 57] |
| > 1 | 0 |  | Cc1ccc(-c2nc3ccc(C(=O)N(CCC(C)C)CCC(C)C)cn3c2CCCN(C)C)nc1 [Example 58] |
| < 0.1 | 0 |  | CC(C)CCN(CCC(C)C)C(=O)c1ccc2nc(-c3ccc(=O)[nH]c3)c(CCCN3CCCC3)n2c1 [Example 59] |
| 0.1 to 1 | 0 |  | COc1cccc(-c2nc3ccc(C(=O)N(CCC(C)C)CCC(C)C)cn3c2CCCN(C(C)C)C(C)C)c1 [Example 60] |
| 0.1 to 1 | 0 |  | CC(C)CCN(CCC(C)C)C(=O)c1ccc2nc(-c3nccs3)c(CCCN(C)C)n2c1 [Example 61] |
| 0.1 to 1 | 0 |  | CC(C)CCN(CCC(C)C)C(=O)c1ccc2nc(-c3cccc(=O)[nH]3)c(CCCN3CCCC3)n2c1 [Example 62] |

Second part, the compound before the results:

| Structure (SMILES) | IC50 [1] [µM] | Emax [2] [%] | EC50 [2] [µM] |
| --- | --- | --- | --- |
| CC(C)CCN(CCC(C)C)C(=O)c1ccc2nc(-c3ccc4c(c3)OCCO4)c(CCCN)n2c1 [Example 1] | 0.1 to 1 | 0 |  |
| CC(C)CCN(CCC(C)C)C(=O)c1ccc2nc(-c3ccc4c(c3)OCCO4)c(CCCN3CCCCC3)n2c1 [Example 2] | < 0.1 | 0 |  |
| COc1ccc(-c2nc3ccc(C(=O)N(CCC(C)C)CCC(C)C)cn3c2CCCN)cc1 [Example 3] | 0.1 to 1 | 0 |  |
| CC(C)CCN(CCC(C)C)C(=O)c1ccc2nc(-c3ccc(Cl)cc3)c(CCCN)n2c1 [Example 4] | 0.1 to 1 | 0 |  |
| COc1ccc(-c2nc3ccc(C(=O)N(CCC(C)C)CCC(C)C)cn3c2CCCN(C)C)cc1 [Example 5] | 0.1 to 1 | 0 |  |
| COc1ccc(-c2nc3ccc(C(=O)N(CCC(C)C)CCC(C)C)cn3c2CCCN2CCCC2)cc1 [Example 6] | < 0.1 | 0 |  |
| COc1cccc(-c2nc3ccc(C(=O)N(CCC(C)C)CCC(C)C)cn3c2CCCNC(C)C)c1 [Example 7] | 0.1 to 1 | 0 |  |
| CCN(CC)CCCc1c(-c2cccc(OC)c2)nc2ccc(C(=O)N(CCC(C)C)CCC(C)C)cn12 [Example 8] | < 0.1 | 0 |  |
| COc1cccc(-c2nc3ccc(C(=O)N(CCC(C)C)CCC(C)C)cn3c2CCCN2CCCC2)c1 [Example 9] | < 0.1 | 0 |  |
| COc1cccc(-c2nc3ccc(C(=O)N(CCC(C)C)CCC(C)C)cn3c2CCCNCC2CC2)c1 [Example 10] | > 1 | 0 |  |
| COc1cccc(-c2nc3ccc(C(=O)N(CCC(C)C)CCC(C)C)cn3c2CCCN2CCC2)c1 [Example 11] | < 0.1 | 0 |  |
| COc1cccc(-c2nc3ccc(C(=O)N(CCC(C)C)CCC(C)C)cn3c2CCCN2CCOCC2)c1 [Example 12] | < 0.1 | 0 |  |
| COCC(C)NCCCc1c(-c2cccc(OC)c2)nc2ccc(C(=O)N(CCC(C)C)CCC(C)C)cn12 (centres unmarked) [Example 13] | > 1 | 0 |  |
| COc1cccc(-c2nc3ccc(C(=O)N(CCC(C)C)CCC(C)C)cn3c2CCCN2CC[C@H](F)C2)c1 [Example 14] | < 0.1 | 0 |  |
| COc1cccc(-c2nc3ccc(C(=O)N(CCC(C)C)CCC(C)C)cn3c2CCCN2CCN(C)CC2)c1 [Example 15] | 0.1 to 1 | 0 |  |
| COc1cccc(-c2nc3ccc(C(=O)N(CCC(C)C)CCC(C)C)cn3c2CCCN2CCOC[C@@H]2C)c1 [Example 16] | < 0.1 | 0 |  |

| Structure (SMILES) | IC50 [1] [µM] | Emax [2] [%] | EC50 [2] [µM] |
| --- | --- | --- | --- |
| CC(C)CCN(CCC(C)C)C(=O)c1ccc2nc(-c3ccc(C#N)cc3)c(CCCN3CCCC3)n2c1 [Example 17] | < 0.1 | 0 |  |
| CC(C)CCN(CCC(C)C)C(=O)c1ccc2nc(-c3ccc(C#N)cc3)c(CCCN(C)C)n2c1 [Example 18] | 0.1 to 1 | 0 |  |
| CC(C)CCN(CCC(C)C)C(=O)c1ccc2nc(-c3ccc(Cl)cc3)c(CCCN3CCCC3)n2c1 [Example 19] | < 0.1 | 0 |  |
| CC(C)CCN(CCC(C)C)C(=O)c1ccc2nc(-c3ccc(Cl)cc3)c(CCCN(C)C)n2c1 [Example 20] | 0.1 to 1 | -18 | < 0.1 |
| COc1cccc(-c2nc3ccc(C(=O)N(CCC(C)C)CCC(C)C)cn3c2CCC(C)N2CCCC2)c1 (centres unmarked) [Example 21] | < 0.1 | 0 |  |
| CC(C)CCN(CCC(C)C)C(=O)c1ccc2nc(-c3ccc(Cl)cc3)c(CCCCN3CCCC3)n2c1 [Example 22] | 0.1 to 1 | 0 |  |
| CCN(C)CCCCc1c(-c2ccc(Cl)cc2)nc2ccc(C(=O)N(CCC(C)C)CCC(C)C)cn12 [Example 23] | 0.1 to 1 | 0 |  |
| CC(C)CCN(CCC(C)C)C(=O)c1ccc2nc(-c3ccc(Cl)cc3)c(CCCCN(C)C)n2c1 [Example 24] | > 1 | 0 |  |
| CC(C)CCN(CCC(C)C)C(=O)c1ccc2nc(-c3ccc(C(N)=O)cc3)c(CCCN3CCCC3)n2c1 [Example 25] | < 0.1 | 0 |  |
| CC(C)CCN(CCC(C)C)C(=O)c1ccc2nc(-c3ccc(C#N)cc3)c(CCN3CCCC3)n2c1 [Example 26] | 0.1 to 1 | 0 |  |
| CC(C)CCN(CCC(C)C)C(=O)c1ccc2nc(-c3ccc(C#N)cc3)c(CCN3CCN(C)CC3)n2c1 [Example 27] | > 1 | 0 |  |
| COc1cccc(-c2nc3ccc(C(=O)N(CCC(C)C)CCC(C)C)cn3c2CCCN(C)C)c1 [Example 28] | 0.1 to 1 | 0 |  |
| CCN(C)CCCc1c(-c2cccc(OC)c2)nc2ccc(C(=O)N(CCC(C)C)CCC(C)C)cn12 [Example 29] | < 0.1 | 0 |  |
| COc1cccc(-c2nc3ccc(C(=O)N(CCC(C)C)CCC(C)C)cn3c2CCCN2CCC(F)CC2)c1 [Example 30] | < 0.1 | 0 |  |
| COc1cccc(-c2nc3ccc(C(=O)N(CCC(C)C)CCC(C)C)cn3c2CCCN2CCCCC2)c1 [Example 31] | < 0.1 | 0 |  |
